What is called IC50 is the concentration needed to halve the response being measured.

30 compounds from patent US9493441B2, “Acyclic cyanoethylpyrazoles as janus kinase inhibitors” (Merck Sharp & Dohme Corp., priority 2011, dated 2016) can be followed below.

In assay [1] the target is JAK1 (Homo sapiens (Human), UniProt P23458). Briefly: Jak biochemical HTRF assay, JAK1.
For assay [2], the target named is JAK2 (Homo sapiens (Human), UniProt O60674). Briefly: Jak biochemical HTRF assay, JAK2.
Where [3] appears, read: JAK1 IC50 (nM), recombinant GST-tagged catalytic domain, [ATP] 31.8 μM.
Setting [4] is: JAK2 IC50 (nM), recombinant GST-tagged catalytic domain, [ATP] […].
The mark [5] stands for this setting: read-out: JAK1 IC50, recombinant GST-tagged catalytic domain, [ATP] 31.8 μM.
Setting [6] is: read-out: JAK2 IC50, recombinant GST-tagged catalytic domain, [ATP] […].

Where two headings read alike, the source gives them in different places.

Chain of JAK1 (P23458 875-1153): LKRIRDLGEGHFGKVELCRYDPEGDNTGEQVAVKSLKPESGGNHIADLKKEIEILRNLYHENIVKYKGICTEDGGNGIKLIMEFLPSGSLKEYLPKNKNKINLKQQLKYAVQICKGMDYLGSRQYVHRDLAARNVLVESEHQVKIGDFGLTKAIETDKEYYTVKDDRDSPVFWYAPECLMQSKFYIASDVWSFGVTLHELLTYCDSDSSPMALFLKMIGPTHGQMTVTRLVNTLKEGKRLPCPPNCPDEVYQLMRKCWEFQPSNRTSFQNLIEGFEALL
Chain of JAK2 (O60674 849-1124): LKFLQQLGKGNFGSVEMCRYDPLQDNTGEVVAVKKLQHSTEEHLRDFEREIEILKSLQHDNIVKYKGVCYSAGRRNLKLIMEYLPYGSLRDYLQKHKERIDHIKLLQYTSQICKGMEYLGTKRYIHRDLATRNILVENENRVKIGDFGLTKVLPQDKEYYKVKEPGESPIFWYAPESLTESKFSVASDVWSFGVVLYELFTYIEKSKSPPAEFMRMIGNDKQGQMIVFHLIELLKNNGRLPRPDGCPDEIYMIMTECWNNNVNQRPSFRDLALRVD

Take `CN1C(=O)c2ccc(Nc3nn(C(CC#N)C4CC4)cc3C(N)=O)cc2C1(C)C` (stereo not drawn) [Example 4-30, 1-(2-cyano-1-cyclopropylethyl)-3-[(2,3,3-trimethyl-1-oxo-2,3-dihydro-1H-isoindol-5-yl)amino]-1H-pyrazole-4-carboxamide]: the results for the IC50 in assay [1] (setting [3]) and in assay [2] (setting [4]) were 15 nM and 226 nM, respectively.

Regarding `N#CCC(C1CC1)n1cc(C(N)=O)c(Nc2ccnc(Cl)c2)n1` (stereo not drawn) [Example 4-27, 3-[(2-chloropyridin-4-yl)amino]-1-(2-cyano-1-cyclopropylethyl)-1H-pyrazole-4-carboxamide], the IC50 in assay [1] (setting [3]) was determined as 166 nM; in assay [2] (setting [4]) it was 290 nM.

Take `N#CCC(C1CC1)n1cc(C(N)=O)c(Nc2ccc3ccncc3c2)n1` (stereo not drawn) [Example 4-15, 1-(2-cyano-1-cyclopropylethyl)-3-(isoquinolin-7-ylamino)-1H-pyrazole-4-carboxamide]: the IC50 in assay [1] (setting [3]) turned out to be 9 nM; in assay [2] (setting [4]), 39 nM.

In the case of `N#CCC(C1CC1)n1cc(C(N)=O)c(Nc2ccc(F)cc2)n1` (stereo not drawn) [Example 4-11, l-(2-cyano-1-cyclopropylethyl)-3-[(4-fluorophenyl)amino]-1H-pyrazole-4-carboxamide], the IC50 worked out at 9 nM in assay [1] (setting [3]) and 66 nM in assay [2] (setting [4]).

As to `CNC(=O)c1ccc(Nc2nn(C(CC#N)C3CC3)cc2C(N)=O)cc1` (stereo not drawn) [Example 4-13, 1-(2-cyano-1-cyclopropylethyl)-3-{[4-(methylcarbamoyl)phenyl]amino}-1H-pyrazole-4-carboxamide], the IC50 was determined as 2 nM in assay [1] (setting [3]) and 21 nM in assay [2] (setting [4]).

As for `CC(C)(C)OC(=O)N1CCC(C(CC#N)n2cc(C(N)=O)c(Nc3ccc(F)cc3)n2)CC1` (stereo not drawn) [Example 3-1, tert-Butyl 4-(1-[4-carbamoyl-3-[(4-fluorophenyl)amino]-1H-pyrazol-1-yl]-2-cyanoethyl)piperidine-1-carboxylate], the IC50 in assay [1] (setting [3]) was 49 nM; in assay [2] (setting [4]), 1500 nM.

With `N#CCCn1cc(C(N)=O)c(Nc2ccccc2)n1` [Example 1-4, 1-(2-cyanoethyl)-3-(phenylamino)-1H-pyrazole-4-carboxamide], the figures for the half-inhibitory concentration (IC50) in assay [1] (setting [3]) and in assay [2] (setting [4]) were 348 nM and 1190 nM, respectively.

In the case of `CC(C)(C)OC(=O)N1CCC(C(C)(CC#N)n2cc(C(N)=O)c(Nc3ccccc3)n2)CC1` (stereo not drawn) [Example 3-3, tert-butyl 4-{2-[4-carbamoyl-3-(phenylamino)-1H-pyrazol-1-yl]-1-cyanopropan-2-yl}piperidine-1-carboxylate], the figures for the half-maximal inhibitory concentration (IC50) in assay [1] (setting [3]) and in assay [2] (setting [4]) were 5 nM and 236 nM, respectively.

On to `CC(C)(O)c1cn(Cc2cccc(Nc3nn(C(CC#N)C4CCCC4)cc3C(N)=O)c2)nn1` (stereo not drawn) [Example 1-8, 1-(2-cyano-1-cyclopentylethyl)-3-[(3-{[4-(1-hydroxy-1-methylethyl)-1H-1,2,3-triazol-1-yl]methyl}phenyl)amino]-1H-pyrazole-4-carboxamide], for which the IC50 in assay [1] (setting [3]) was 194 nM; in assay [2] (setting [4]) it was 999 nM.

As for `CC(C#N)Cn1cc(C(N)=O)c(Nc2ccc(F)cc2)n1` (stereo not drawn) [Example 9, 1-(2-Cyanopropyl)-3-[(4-fluorophenyl)amino]-1H-pyrazole-4-carboxamide], the 50% inhibitory concentration (IC50) was found to be 59 nM in assay [1] (setting [3]) and 524 nM in assay [2] (setting [4]).

For the compound `N#CC[C@@H](C1CCN(C(=O)OCC2CCOC2)CC1)n1cc(C(N)=O)c(Nc2ccc(F)cc2)n1` (stereo partly drawn) [Example 11-12, tetrahydrofuran-3-ylmethyl 4-[(1S)-1-{4-carbamoyl-3-[(4-fluorophenyl)amino]-1H-pyrazol-1-yl}-2-cyanoethyl]piperidine-1-carboxylate], the IC50 in assay [1] (setting [3]) came to 181 nM; in assay [2] (setting [4]) it was 1500 nM.

Take `N#CCC(n1cc(C(N)=O)c(Nc2ccccc2)n1)C(F)(F)F` (stereo not drawn) [Example 2, 1-(3-Cyano-1,1,1-trifluoropropan-2-yl)-3-(phenylamino)-1H-pyrazole-4-carboxamide]: the IC50 is 124 nM in assay [1] (setting [3]) and 339 nM in assay [2] (setting [4]).

For the compound `N#CCC(C1CC1)n1cc(C(N)=O)c(Nc2ccc(S(=O)(=O)C(F)(F)F)cc2)n1` (stereo not drawn) [Example 4-28, 1-(2-cyano-1-cyclopropylethyl)-3-({4-[(trifluoromethyl)sulfonyl]phenyl}amino)-1H-pyrazole-4-carboxamide], the IC50 was determined as 11 nM in assay [1] (setting [3]) and 75 nM in assay [2] (setting [4]).

For the compound `N#CCC(C1CC1)n1cc(C(N)=O)c(Nc2ccccc2F)n1` (stereo not drawn) [Example 4-5, 1-(2-cyano-1-cyclopropylethyl)-3-[(2-fluorophenyl)amino]-1H-pyrazole-4-carboxamide], the results for the IC50 in assay [1] (setting [3]) and in assay [2] (setting [4]) were 360 nM and 1480 nM, respectively.

`CN(C)CCOC(=O)N1CCC([C@H](CC#N)n2cc(C(N)=O)c(Nc3ccc(F)cc3)n2)CC1` (stereo in doubt) [Example 11-1, 2-(Dimethylamino)ethyl 4-(1-{4-carbamoyl-3-[(4-fluorophenyl)amino]-1H-pyrazol-1-yl}-2-cyanoethyl)piperidine-1-carboxylate]: the IC50 in assay [1] (setting [3]) came to 959 nM; in assay [2] (setting [4]) it was 1500 nM.

Take `CN1Cc2cc(Nc3nn(C(CC#N)C4CC4)cc3C(N)=O)ccc2C1=O` (stereo not drawn) [Example 4-33, 1-(2-cyano-1-cyclopropylethyl)-3-[(2-methyl-1-oxo-2,3-dihydro-1H-isoindol-5-yl)amino]-1H-pyrazole-4-carboxamide]: the figures for the IC50 in assay [1] (setting [3]) and in assay [2] (setting [4]) were 1 nM and 23 nM, respectively.

On to `N#CCC(C1CCCC1)n1cc(C(N)=O)c(Nc2ccccc2)n1` (single isomer, unassigned) [Example 16-4, 1-[(1S or 1R)-2-cyano-1-cyclopentylethyl]-3-(phenylamino)-1H-pyrazole-4-carboxamide], for which the IC50 in assay [1] (setting [3]) amounted to 141 nM; in assay [2] (setting [4]), 567 nM.

On to `N#CCC(C1CC1)n1cc(C(N)=O)c(Nc2ccc(N3CCOCC3)cc2)n1` (stereo not drawn) [Example 4-17, 1-(2-cyano-1-cyclopropylethyl)-3-[(4-morpholin-4-ylphenyl)amino]-1H-pyrazole-4-carboxamide], for which the IC50 in assay [1] (setting [3]) turned out to be 13 nM; in assay [2] (setting [4]), 43 nM.

Regarding `N#CCC(C1CC1)n1cc(C(N)=O)c(Nc2ccc3c(c2)CCS3(=O)=O)n1` (stereo not drawn) [Example 5, 1-(2-Cyano-1-cyclopropylethyl)-3-[(1,1-dioxido-2,3-dihydro-1-benzothiophen-5-yl)amino]-1H-pyrazole-4-carboxamide], the IC50 in assay [1] (setting [3]) was determined as 1 nM; in assay [2] (setting [4]), 15 nM.

In the case of `CC[C@H](CC#N)n1cc(C(N)=O)c(Nc2ccccc2)n1` (single isomer, unassigned) [Example 16-1, 1-[(1R or 1S)-1-(cyanomethyl)propyl]-3-(phenylamino)-1H-pyrazole-4-carboxamide], the IC50 in assay [1] (setting [5]) was determined as 43 nM; in assay [2] (setting [6]), 578 nM.

Turning to `N#CCC(C1CC1)n1cc(C(N)=O)c(Nc2cccc(CO)c2)n1` (stereo not drawn) [Example 4-10, 1-(2-cyano-1-cyclopropylethyl)-3-{[3-(hydroxymethyl)phenyl]amino}-1H-pyrazole-4-carboxamide], the IC50 is 12 nM in assay [1] (setting [3]) and 41 nM in assay [2] (setting [4]).

`N#CCCc1cccc(Nc2nn(C(CC#N)C3CC3)cc2C(N)=O)c1` (stereo not drawn) [Example 4-7, 1-(2-cyano-1-cyclopropylethyl)-3-{[3-(2-cyanoethyl)phenyl]amino}-1H-pyrazole-4-carboxamide]: the figures for the IC50 in assay [1] (setting [3]) and in assay [2] (setting [4]) were 13 nM and 73 nM, respectively.

`C[S+]([O-])c1ccc(Nc2nn(C(CC#N)C3CC3)cc2C(N)=O)cc1` (stereo not drawn) [Example 4-32, 1-(2-cyano-1-cyclopropylethyl)-3-{[4-(methylsulfinyl)phenyl]amino}-1H-pyrazole-4-carboxamide]: the half-inhibitory concentration (IC50) came to 1 nM in assay [1] (setting [3]) and 13 nM in assay [2] (setting [4]).

On to `N#CC[C@@H](C1CCN(C(=O)OC2CCOCC2)CC1)n1cc(C(N)=O)c(Nc2ccc(F)cc2)n1` [Example 11-8, tetrahydro-2H-pyran-4-yl 4-[(1S)-1-{4-carbamoyl-3-[(4-fluorophenyl)amino]-1H-pyrazol-1-yl}-2-cyanoethyl]piperidine-1-carboxylate], for which the figures for the IC50 in assay [1] (setting [3]) and in assay [2] (setting [4]) were 220 nM and 1500 nM, respectively.

Take `COCC(C)OC(=O)N1CCC([C@H](CC#N)n2cc(C(N)=O)c(Nc3ccc(F)cc3)n2)CC1` (stereo partly drawn) [Example 11-9, 2-methoxy-1-methylethyl 4-[(1S)-1-{4-carbamoyl-3-[(4-fluorophenyl)amino]-1H-pyrazol-1-yl}-2-cyanoethyl]piperidine-1-carboxylate]: the IC50 came to 108 nM in assay [1] (setting [3]) and 1030 nM in assay [2] (setting [4]).

In the case of “1-[(1R or 1S)-2-cyano-1-cyclopropylethyl]-3-{[4-(methylsulfonyl)phenyl]amino}-1H-pyrazole-4-carboxamide [Example 14-1]”, the IC50 was found to be 1 nM in assay [1] (setting [5]) and 8 nM in assay [2] (setting [6]).

For `N#CCC(C1CC1)n1cc(C(N)=O)c(Nc2ccc3c(c2)CCC3=O)n1` (stereo not drawn) [Example 4-19, 1-(2-cyano-1-cyclopropylethyl)-3-[(1-oxo-2,3-dihydro-1H-inden-5-yl)amino]-1H-pyrazole-4-carboxamide], the figures for the IC50 in assay [1] (setting [3]) and in assay [2] (setting [4]) were 2 nM and 17 nM, respectively.

As to `CC(C)(C)OC(=O)N1CCC(F)(C(CC#N)n2cc(C(N)=O)c(Nc3ccccc3)n2)CC1` (stereo not drawn) [Example 3-2, tert-butyl 4-{1-[4-carbamoyl-3-(phenylamino)-1H-pyrazol-1-yl]-2-cyanoethyl}-4-fluoropiperidine-1-carboxylate], the 50% inhibitory concentration (IC50) was 99 nM in assay [1] (setting [3]) and 1500 nM in assay [2] (setting [4]).

For the compound `CC(=O)Nc1ccc(Nc2nn(C(CC#N)C3CC3)cc2C(N)=O)cc1` (stereo not drawn) [Example 4-21, 3-{[4-(acetylamino)phenyl]amino}-1-(2-cyano-1-cyclopropylethyl)-1H-pyrazole-4-carboxamide], the IC50 in assay [1] (setting [3]) was 8 nM; in assay [2] (setting [4]), 45 nM.

As for `N#CCC(C1CCCOC1)n1cc(C(N)=O)c(Nc2ccccc2)n1` (stereo not drawn) [Example 1-15, 1-[2-cyano-1-(tetrahydro-2H-pyran-3-yl)ethyl]-3-(phenylamino)-1H-pyrazole-4-carboxamide], the figures for the IC50 in assay [1] (setting [3]) and in assay [2] (setting [4]) were 501 nM and 1480 nM, respectively.
